Experiments:
[1] = Antiproliferative activity against human HCCLM7 cells after 72 hrs by MTT method; format: functional, cell-based; settings: HCCLM7, 72 h
SW480 = assay: Antiproliferative activity against human SW480 cells after 72 hrs by MTT method; format: functional, cell-based; settings: SW480, 72 h
cells = format: functional, cell-based; settings: Homo sapiens, MDA-MB-435S, 72 h
Description: Antiproliferative activity against human MDA-MB-435S cells after 72 hrs by MTT method

HEp-2 [2] = assay: Antiproliferative activity against human Hep2 cells after 72 hrs by MTT method; format: functional, cell-based; settings: HEp-2, 72 h
HEp-2 [3] = assay: Cell cycle arrest in Hep2 cells assessed as accumulation at G0/G1 phase at 5.7 uM after 24 hrs; format: functional, Homo sapiens
HEp-2 [4] = assay: Cell cycle arrest in Hep2 cells assessed as accumulation at subG0 phase at 5.7 uM after 36 hrs; format: functional, Homo sapiens
HEp-2 [5] = assay: Cell cycle arrest in Hep2 cells assessed as accumulation at S phase at 5.7 uM after 24 hrs; format: functional, Homo sapiens
HEp-2 [6] = assay: Cell cycle arrest in Hep2 cells assessed as accumulation at S phase at 5.7 uM after 36 hrs; format: functional, Homo sapiens
HEp-2 [7] = assay: Cell cycle arrest in Hep2 cells assessed as accumulation at subG0 phase at 5.7 uM after 24 hrs; format: functional, Homo sapiens
HEp-2 [8] = assay: Cell cycle arrest in Hep2 cells assessed as accumulation at G0/G1 phase at 5.7 uM after 48 hrs; format: functional, Homo sapiens
HEp-2 [9] = assay: Cell cycle arrest in Hep2 cells assessed as accumulation at […] phase at 5.7 uM after 48 hrs; format: functional, Homo sapiens
HEp-2 [10] = assay: Cell cycle arrest in Hep2 cells assessed as accumulation at S phase at 5.7 uM after 48 hrs; format: functional, Homo sapiens
HEp-2 [11] = assay: Cell cycle arrest in Hep2 cells assessed as accumulation at G2/M phase at 5.7 uM after 24 hrs; format: functional, Homo sapiens
HEp-2 [12] = assay: Cell cycle arrest in Hep2 cells assessed as accumulation at G0/G1 phase at 5.7 uM after 36 hrs; format: functional, Homo sapiens
HEp-2 [13] = assay: Cell cycle arrest in Hep2 cells assessed as accumulation at subG0 phase at 5.7 uM after 48 hrs; format: functional, Homo sapiens
HEp-2 [14] = assay: Cell cycle arrest in Hep2 cells assessed as accumulation at […] phase at 5.7 uM after 36 hrs; format: functional, Homo sapiens
HEp-2 [15] = assay: Cell cycle arrest in Hep2 cells assessed as accumulation at G2/M phase at 4.7 uM after 48 hrs; format: functional, cell-based, Homo sapiens
HEp-2 [16] = assay: Cell cycle arrest in Hep2 cells assessed as accumulation at G0/G1 phase at 4.7 uM after 24 hrs; format: functional, Homo sapiens
HEp-2 [17] = assay: Cell cycle arrest in Hep2 cells assessed as accumulation at subG0 phase at 4.7 uM after 48 hrs; format: functional, Homo sapiens
HEp-2 [18] = assay: Cell cycle arrest in Hep2 cells assessed as accumulation at subG0 phase at 4.7 uM after 36 hrs; format: functional, Homo sapiens
HEp-2 [19] = assay: Cell cycle arrest in Hep2 cells assessed as accumulation at S phase at 4.7 uM after 48 hrs; format: functional, Homo sapiens
HEp-2 [20] = assay: Cell cycle arrest in Hep2 cells assessed as accumulation at G2/M phase at 4.7 uM after 24 hrs; format: functional, Homo sapiens
HEp-2 [21] = assay: Cell cycle arrest in Hep2 cells assessed as accumulation at G2/M phase at 4.7 uM after 36 hrs; format: functional, Homo sapiens
HEp-2 [22] = assay: Cell cycle arrest in Hep2 cells assessed as accumulation at G0/G1 phase at 4.7 uM after 48 hrs; format: functional, Homo sapiens
HEp-2 [23] = assay: Cell cycle arrest in Hep2 cells assessed as accumulation at subG0 phase at 4.7 uM after 24 hrs; format: functional, Homo sapiens
HEp-2 [24] = assay: Cell cycle arrest in Hep2 cells assessed as accumulation at S phase at 4.7 uM after 36 hrs; format: functional, Homo sapiens
HEp-2 [25] = assay: Cell cycle arrest in Hep2 cells assessed as accumulation at G0/G1 phase at 4.7 uM after 36 hrs; format: functional, Homo sapiens
HEp-2 [26] = assay: Cell cycle arrest in Hep2 cells assessed as accumulation at S phase at 4.7 uM after 24 hrs; format: functional, Homo sapiens

O=C1/C(=C/N2CCCCC2)Oc2ccccc21
IC50 [1]: > 50 µM | IC50 (SW480): > 50 µM | IC50 (cells): 47.8 µM | IC50 (HEp-2 [2]): > 50 µM

O=c1c(Sc2nc3ccccc3[nH]2)coc2ccccc12
IC50 [1]: > 50 µM | IC50 (SW480): > 50 µM | IC50 (cells): 30.3 µM | IC50 (HEp-2 [2]): 42.6 µM

CN1CCN(/C=C2\Oc3ccccc3C2=O)CC1
IC50 [1]: > 50 µM | IC50 (SW480): > 50 µM | IC50 (cells): 40.3 µM | IC50 (HEp-2 [2]): > 50 µM

Cc1nnc(Sc2coc3ccccc3c2=O)o1
IC50 [1]: > 50 µM | IC50 (SW480): > 50 µM | IC50 (cells): > 50 µM | IC50 (HEp-2 [2]): > 50 µM

Cc1nnc(Sc2coc3ccccc3c2=O)s1
IC50 [1]: > 50 µM | IC50 (SW480): > 50 µM | IC50 (cells): > 50 µM | IC50 (HEp-2 [2]): 40.2 µM

Nc1nnc(Sc2coc3ccccc3c2=O)s1
IC50 [1]: > 50 µM | IC50 (SW480): > 50 µM | IC50 (cells): > 50 µM | IC50 (HEp-2 [2]): 47.7 µM

Cc1cc(C)nc(Sc2coc3ccccc3c2=O)n1
IC50 [1]: > 50 µM | IC50 (SW480): > 50 µM | IC50 (cells): > 50 µM | IC50 (HEp-2 [2]): > 50 µM

CN1CCN(/C=C2\Oc3ccccc3C2=O)C(c2ccccc2)C1 (stereo not given)
IC50 [1]: > 50 µM | IC50 (SW480): > 50 µM | IC50 (cells): > 50 µM | IC50 (HEp-2 [2]): > 50 µM

O=C1/C(=C/N2CCN(Cc3ccccc3)CC2)Oc2ccccc21
Activity (HEp-2 [3]): 44.87% | Activity (HEp-2 [4]): 4.93% | IC50 [1]: 9.6 µM | Activity (HEp-2 [5]): 22.98% | Activity (HEp-2 [6]): 23.84% | Activity (HEp-2 [7]): 4.69% | Activity (HEp-2 [8]): 75.85% | IC50 (SW480): 6.6 µM | Activity (HEp-2 [9]): 6.32% | IC50 (cells): 7.6 µM | IC50 (HEp-2 [2]): 5.7 µM | Activity (HEp-2 [10]): 17.83% | Activity (HEp-2 [11]): 32.14% | Activity (HEp-2 [12]): 58.7% | Activity (HEp-2 [13]): 18.2% | Activity (HEp-2 [14]): 17.46%

O=C1/C(=C/N2CCN(CC(c3ccc(F)cc3)c3ccc(F)cc3)CC2)Oc2ccccc21
Activity (HEp-2 [15]): 5.41% | Activity (HEp-2 [16]): 55.9% | Activity (HEp-2 [17]): 16.46% | Activity (HEp-2 [18]): 5.55% | IC50 [1]: 12.1 µM | Activity (HEp-2 [19]): 20.89% | IC50 (SW480): 13.1 µM | Activity (HEp-2 [20]): 19.09% | Activity (HEp-2 [21]): 18.52% | IC50 (cells): 4.1 µM | IC50 (HEp-2 [2]): 4.7 µM | Activity (HEp-2 [22]): 73.71% | Activity (HEp-2 [23]): 0% | Activity (HEp-2 [24]): 18.45% | Activity (HEp-2 [25]): 63.03% | Activity (HEp-2 [26]): 25.01%

O=C1/C(=C/N2CCN(c3ccccc3)CC2)Oc2ccccc21
IC50 [1]: 45.1 µM | IC50 (SW480): 36.4 µM | IC50 (cells): 25.1 µM | IC50 (HEp-2 [2]): 27.7 µM

O=c1c(Sc2nc3ccccc3o2)coc2ccccc12
IC50 [1]: > 50 µM | IC50 (SW480): 36.4 µM | IC50 (cells): 26.1 µM | IC50 (HEp-2 [2]): 29.6 µM

O=c1c(Sc2nc3ccccc3s2)coc2ccccc12
IC50 [1]: > 50 µM | IC50 (SW480): 45.2 µM | IC50 (cells): 17.1 µM | IC50 (HEp-2 [2]): 31.3 µM

O=c1[nH]cc(F)c(=O)[nH]1 [FLUOROURACIL]
IC50 [1]: 18.6 µM | IC50 (SW480): 8.1 µM | IC50 (cells): 14.5 µM | IC50 (HEp-2 [2]): 129 µM

— ChEMBL document CHEMBL1149599, “Design, syntheses, and antitumor activity of novel chromone and aurone derivatives” (Bioorg Med Chem, 2007)
